Experimental data published in PubChem BioAssay AID2060499 (Molecular Pharmacology Branch, DTP, NCI, 2025).
pIC50: −log10 of the molar value.

Test system: 777334-354-R2-J4-PDC tumor spheroids with HUVEC/MSC, viability
Test: Anticancer human tumor 777334-354-R2-J4-PDC patient-derived pancreatic adenocarcinoma cell line growth inhibition [GQUAD]
Details: for pIC50: curve of first compound; for viability, T/C: stronger effect = lower value
Outline: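 Multi-cell-type spheroids of tumor cells with HUVEC and mesenchymal stem cells, treated with drug combinations. Concentrations descend in half-log steps from near clinical Cmax, or from 10 microM where Cmax is unknown; viability read-out.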

[1] = second compound 0.0316 µM, first compound 0.0316 µM
[2] = second compound 0.0316 µM, first compound 0.1 µM
[3] = second compound 0.0316 µM, first compound 0.316 µM
[4] = second compound 0.0316 µM, first compound 1 µM
[5] = second compound 0.0316 µM, first compound 3.16 µM
[6] = second compound 0.0316 µM, first compound 10 µM
[7] = second compound 0.1 µM, first compound 0.0316 µM
[8] = second compound 0.1 µM, first compound 0.1 µM
[9] = second compound 0.1 µM, first compound 0.316 µM
[10] = second compound 0.1 µM, first compound 1 µM
[11] = second compound 0.1 µM, first compound 3.16 µM
[12] = second compound 0.1 µM, first compound 10 µM
[13] = second compound 0.316 µM, first compound 0.0316 µM
[14] = second compound 0.316 µM, first compound 0.1 µM
[15] = second compound 0.316 µM, first compound 0.316 µM
[16] = second compound 0.316 µM, first compound 1 µM
[17] = second compound 0.316 µM, first compound 3.16 µM
[18] = second compound 0.316 µM, first compound 10 µM
[19] = second compound 1 µM, first compound 0.0316 µM
[20] = second compound 1 µM, first compound 0.1 µM
[21] = second compound 1 µM, first compound 0.316 µM
[22] = second compound 1 µM, first compound 1 µM
[23] = second compound 1 µM, first compound 3.16 µM
[24] = second compound 1 µM, first compound 10 µM
[25] = second compound 3.16 µM, first compound 0.0316 µM
[26] = second compound 3.16 µM, first compound 0.1 µM
[27] = second compound 3.16 µM, first compound 0.316 µM
[28] = second compound 3.16 µM, first compound 1 µM
[29] = second compound 3.16 µM, first compound 3.16 µM
[30] = second compound 3.16 µM, first compound 10 µM
[31] = second compound 10 µM, first compound 0.0316 µM
[32] = second compound 10 µM, first compound 0.1 µM
[33] = second compound 10 µM, first compound 0.316 µM
[34] = second compound 10 µM, first compound 1 µM
[35] = second compound 10 µM, first compound 3.16 µM
[36] = second compound 10 µM, first compound 10 µM
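Also: spheroids exposed to compounds for 7 days before readout.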

For `COc1cccc2c1C(=O)c1c(O)c3c(c(O)c1C2=O)CC(O)(C(=O)CO)CC3OC1CC(N)C(O)C(C)O1` (stereo unspecified) + CN(C)c1ccc(Nc2c3ccc(NC(=O)CCN4CCCC4)cc3nc3cc(NC(=O)CCN4CCCC4)ccc23)cc1, the pIC50 (second compound 0.0316 µM) was 6.04, the pIC50 (second compound 0.1 µM) was 6.08 and the pIC50 (second compound 0.316 µM) was 6.11. For the same compound, the pIC50 (second compound 1 µM) was 6.17, the pIC50 (second compound 3.16 µM) was 6.20 and the pIC50 (second compound 10 µM) was 6.07. It also gave a viability, T/C [1] of 109%, a viability, T/C [2] of 84.4% and a viability, T/C [3] of 74.2%. For the same compound, the viability, T/C [4] was 49.3%, the viability, T/C [5] was 25.2% and the viability, T/C [6] was 9.52%. It also gave a viability, T/C [7] of 100%, a viability, T/C [8] of 85.3% and a viability, T/C [9] of 71.2%. It also gave a viability, T/C [10] of 47.1%, a viability, T/C [11] of 24.5% and a viability, T/C [12] of 13.8%. For the same compound, the viability, T/C [13] was 107%, the viability, T/C [14] was 78.9% and the viability, T/C [15] was 70.1%. The viability, T/C [16] was 47.9%, the viability, T/C [17] was 23.6% and the viability, T/C [18] was 14%. The viability, T/C [19] was 89.7%, the viability, T/C [20] was 74.7% and the viability, T/C [21] was 66.5%. The viability, T/C [22] was 42.9%, the viability, T/C [23] was 23.2% and the viability, T/C [24] was 12.2%. The viability, T/C [25] was 83.7%, the viability, T/C [26] was 76.5% and the viability, T/C [27] was 55%. The viability, T/C [28] was 48.4%, the viability, T/C [29] was 25% and the viability, T/C [30] was 15.2%. It also gave a viability, T/C [31] of 77%, a viability, T/C [32] of 78.2% and a viability, T/C [33] of 64%. It also gave a viability, T/C [34] of 50%, a viability, T/C [35] of 22.3% and a viability, T/C [36] of 14%.
Compound `Nc1ccn(C2OC(CO)C(O)C2(F)F)c(=O)n1` (stereo unspecified) + CN(C)c1ccc(Nc2c3ccc(NC(=O)CCN4CCCC4)cc3nc3cc(NC(=O)CCN4CCCC4)ccc23)cc1 has a pIC50 (second compound 0.0316 µM) of 6.25, a pIC50 (second compound 0.1 µM) of 6.40 and a pIC50 (second compound 0.316 µM) of 6.49. It also gave a pIC50 (second compound 1 µM) of 6.77, a pIC50 (second compound 3.16 µM) of 6.82 and a pIC50 (second compound 10 µM) of 7.11. The viability, T/C [1] was 80.7%, the viability, T/C [2] was 67.8% and the viability, T/C [3] was 54.4%. For the same compound, the viability, T/C [4] was 44.3%, the viability, T/C [5] was 37.5% and the viability, T/C [6] was 27.3%. The viability, T/C [7] was 80.5%, the viability, T/C [8] was 71.5% and the viability, T/C [9] was 51.5%. For the same compound, the viability, T/C [10] was 39.1%, the viability, T/C [11] was 32.6% and the viability, T/C [12] was 27.4%. For the same compound, the viability, T/C [13] was 68.5%, the viability, T/C [14] was 65.8% and the viability, T/C [15] was 45.4%. It also gave a viability, T/C [16] of 40.5%, a viability, T/C [17] of 33.2% and a viability, T/C [18] of 23.4%. The viability, T/C [19] was 76.2%, the viability, T/C [20] was 55.3% and the viability, T/C [21] was 42.2%. For the same compound, the viability, T/C [22] was 34.4%, the viability, T/C [23] was 30.1% and the viability, T/C [24] was 22.9%. It also gave a viability, T/C [25] of 67.4%, a viability, T/C [26] of 51.8% and a viability, T/C [27] of 43.5%. For the same compound, the viability, T/C [28] was 33.7%, the viability, T/C [29] was 32.4% and the viability, T/C [30] was 22.2%. The viability, T/C [31] was 59.5%, the viability, T/C [32] was 49.5% and the viability, T/C [33] was 33.9%. The viability, T/C [34] was 30.5%, the viability, T/C [35] was 30.3% and the viability, T/C [36] was 18.5%.
`O=c1[nH]cc(F)c(=O)[nH]1` + CN(C)c1ccc(Nc2c3ccc(NC(=O)CCN4CCCC4)cc3nc3cc(NC(=O)CCN4CCCC4)ccc23)cc1 was tested, and the pIC50 (second compound 0.0316 µM) was < 5.00, the pIC50 (second compound 0.1 µM) was < 5.00 and the pIC50 (second compound 0.316 µM) was < 5.00. For the same compound, the pIC50 (second compound 1 µM) was < 5.00, the pIC50 (second compound 3.16 µM) was < 5.00 and the pIC50 (second compound 10 µM) was 5.09. The viability, T/C [1] was 91.7%, the viability, T/C [2] was 92% and the viability, T/C [3] was 99.9%. It also gave a viability, T/C [4] of 84.2%, a viability, T/C [5] of 66.7% and a viability, T/C [6] of 55.3%. It also gave a viability, T/C [7] of 96.8%, a viability, T/C [8] of 96.8% and a viability, T/C [9] of 92.3%. It also gave a viability, T/C [10] of 90.7%, a viability, T/C [11] of 80.3% and a viability, T/C [12] of 60%. The viability, T/C [13] was 92.6%, the viability, T/C [14] was 91% and the viability, T/C [15] was 96.3%. It also gave a viability, T/C [16] of 87.1%, a viability, T/C [17] of 72.4% and a viability, T/C [18] of 54.7%. The viability, T/C [19] was 99.3%, the viability, T/C [20] was 88.5% and the viability, T/C [21] was 82.8%. For the same compound, the viability, T/C [22] was 70.6%, the viability, T/C [23] was 65.9% and the viability, T/C [24] was 55%. The viability, T/C [25] was 93.2%, the viability, T/C [26] was 81.6% and the viability, T/C [27] was 79.2%. It also gave a viability, T/C [28] of 77.8%, a viability, T/C [29] of 71.1% and a viability, T/C [30] of 54.2%. For the same compound, the viability, T/C [31] was 76.6%, the viability, T/C [32] was 79.1% and the viability, T/C [33] was 76.8%. The viability, T/C [34] was 71.4%, the viability, T/C [35] was 60.9% and the viability, T/C [36] was 47.7%.
